1 compound from patent publication US20230312561A1, “SOLID FORMS OF (Z)-METHYL 3-(((4-(N-METHYL-2-(4-METHYLPIPERAZIN-1-YL)ACETAMIDO)PHENYL)AMINO)(PHENYL)METHYLENE)-2-OXO-2,3-DIHYDRO-1H-PYRROLO[2,3-B]PYRIDINE-6-CARBOXYLATE AND SALTS THEREOF” (Angion Biomedica Corp., priority 2020, published 2023) can be followed below.

The nature of this data set: Drying studies of Compound 1 Hydrochloride (XRPD, TGA). In kind it is physicochemical. As for the experimental part: Compound 1 Hydrochloride Form A was then subjected to drying under various conditions.
Drying studies of Compound 1 Hydrochloride Form A (Type 1 Lot) were performed.
Variability in the drying profiles of different lots of Compound 1 Hydrochloride were noted, particularly with regards to the transition between Form A and Form C. The variable behavior appeared to depend upon the nature of the input Form A batch (e.g., how it was generated and then conditioned, if at all, prior to drying, and/or if excess hydrochloric acid was present).
Concentrated HCl (154 μL, 1 eqiuv) was added which clarified the suspension to a deep orange solution. The mixture was equilibrated for 30 minutes before cooling gradually to room temperature. A thin yellow suspension resulted. The solvent volume was reduced by 50% which thickened the suspension. The suspension was matured overnight, following which the solid was filtered to isolate the solids. The solid was air dried for ˜30 minutes giving a yellow solid (damp mass: 1.24 g; pH measured at 5.0). The XRPD pattern of the damp solid corresponded with Compound 1 Hydrochloride Form H. Analysis of the damp solid by DSC and TGA indicated a water content of 8.2%, which was fairly labile up ˜75° C.
Compound 1 Hydrochloride Form H was then subjected to a drying study under various conditions.
The solids were further subjected to prolonged drying.

The mark [1] stands for this setting: Dry in vacuo at 25° C., T = 24 h.
The mark [2] stands for this setting: Dry in vacuo at 25° C., T = 96 h.
Setting [3] is: Dry in vacuo at 25° C., T = 120 h.
Setting [4] is: Dry in vacuo at 45° C., T = 24 h.
The mark [5] stands for this setting: Dry in vacuo at 45° C., T = 96 h.
[6] abbreviates: Dry in vacuo at 45° C., T = 120 h.
[7] abbreviates: Dry in vacuo at 70° C., T = 24 h.
[8] abbreviates: Dry in vacuo at 70° C., T = 96 h.
[9] abbreviates: Dry in vacuo at 70° C., T = 120 h.

For `COC(=O)c1ccc2c(c1)NC(=O)/C2=C(\Nc1ccc(N(C)C(=O)CN2CCN(C)CC2)cc1)c1ccccc1.Cl` [Compound 1 Hydrochloride Form A (Type 1 Lot)], the “TGA (%)” value runs as follows: under setting [1], 11.12%; under setting [2], 10.14%; under setting [3], 10.47%; under setting [4], 9.84%; under setting [5], 8.71%; under setting [6], 10.19%. The “TGA (%)” value under setting [7] was determined as 10.48%; the “TGA (%)” value under setting [8] is on record as 8.19%; the “TGA (%)” value under setting [9] amounted to 10.85%; the “TGA (%)” value (T = 0, before drying) came out at 9.673%. Besides, the XRPD result is, setting by setting: under setting [1], “Form A”; under setting [2], “Form A”; under setting [3], “Form A”; under setting [4], “Form A”; under setting [5], “Form A”; under setting [6], “Form A”. For the same compound, the XRPD entry was “Form A” under setting [7], “Form A” under setting [8] and “Form A” under setting [9].
